≈ marks a conversion by molar mass, not a printed value. Where “and” joins values, the source holds several entries; their conditions need not be identical. Identical values can stand only once.
Tests used:
[1] = test system: methicillin-resistant Staphylococcus aureus (MRSA); experiment: Minimum inhibitory concentration (MIC) against MRSA clinical isolate; type: cell-based; conditions: clinical isolate of MRSA from the Massachusetts General Hospital
Text: Compounds of this invention can have useful activity against a variety of pathogenic microorganisms. The in vitro activity of compounds of this invention can be assessed by standard testing procedures such as the determination of minimum inhibitory concentration (MIC) by agar dilution as described in “Approved Standard. Methods for Dilution Antimicrobial Susceptibility Tests for Bacteria That Grow Aerobically”, 3rd. ed., published 1993 by the National Committee for Clinical Laboratory Standards, Villanova, Pa., USA. Minimum inhibitory concentration (MIC) refers to the lowest concentration of drug (μg/mL) that inhibits visible growth of the organism. Lower MIC values indicate a higher antibacterial activity. Typically, compounds of present invention have useful potency against Gram-positive or Gram-negative pathogens with MIC values of ≦16 μg/mL. The useful activity of compounds of the present invention against a clinical isolate of methicillin-resistant Staphylococcus aureus (MRSA; from the Massachusetts General Hospital, USA) is illustrated by the MIC data of Table 1.

[2] = target: T1, Human monoamine oxidase (MOA) A type enzyme (Homo sapiens, UniProt P21397); experiment: MAO-Glo monoamine oxidase A enzyme inhibition assay; type: biochemical; conditions: human MAO A enzyme (BD Gentest), MAO-Glo kit; Linezolid value of side-by-side test in parenthesis
T1 construct: purchased BD Gentest
T1 sequence (P21397 1-527): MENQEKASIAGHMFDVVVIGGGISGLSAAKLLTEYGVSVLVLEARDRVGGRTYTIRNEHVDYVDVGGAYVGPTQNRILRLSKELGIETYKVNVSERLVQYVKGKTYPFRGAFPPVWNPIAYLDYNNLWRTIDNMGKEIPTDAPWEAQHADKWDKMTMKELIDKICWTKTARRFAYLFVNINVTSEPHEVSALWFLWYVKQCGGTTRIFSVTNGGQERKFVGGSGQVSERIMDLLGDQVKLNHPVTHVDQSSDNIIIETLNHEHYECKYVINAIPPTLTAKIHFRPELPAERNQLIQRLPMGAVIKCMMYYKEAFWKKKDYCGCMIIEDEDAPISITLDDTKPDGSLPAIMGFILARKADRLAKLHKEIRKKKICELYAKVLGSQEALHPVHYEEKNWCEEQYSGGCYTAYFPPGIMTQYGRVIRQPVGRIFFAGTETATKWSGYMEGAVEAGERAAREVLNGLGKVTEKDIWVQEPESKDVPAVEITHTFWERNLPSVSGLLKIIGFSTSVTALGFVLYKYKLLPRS
Procedure: Human monoamine oxidase (MOA) A type enzyme inhibition activity for select compounds was measured using a commercial MAO assay kit MAO-Glo™ from Promega Co. (USA). The assay was performed as described in the company's technical bulletin “MAO-Glo™ Assay”. The protocol involves an incubation of the MAO A enzyme (BD Gentest™) with a luminogenic MAO substrate to produce an enzymatic product which is converted to luciferin by a coupled reaction. The released luciferin undergoes further transformation to generate light that is detected and measured. The amount of the light is directly proportional to the activity of MAO. Percent inhibition at several concentrations is established relative to the uninhibited control rate, and the IC50 (μg/mL) values are calculated. […] The MAO inhibition data for select compound of this invention are illustrated in the Table 2 below.

[3] = test system: human CD34+ bone marrow cells; experiment: Myelosuppressive potential: bone marrow CD34+ cell growth inhibition, luminescence assay; type: cell-based; conditions: 9-10 days at 37° C., Linezolid value of side-by-side test in parenthesis; for IC50: Homo sapiens, CD34+ cell
Procedure: Myelosuppressive potential (hematopoietic or bone marrow toxicity) was evaluated using human CD34^+ bone marrow cells, generally following methods described by Leach in International Patent Publication No. WO 2006/097828. Thus, an oxazolidinone compound was incubated with fresh human bone marrow cells for 9-10 days at 37° C. in 5% CO2 atmosphere. At end of the incubation period, the bone marrow toxicity was accessed by measuring inhibition (IC50, μg/mL) of CD34^+ cell growth using a luminescence assay. Lower IC50 value indicates a higher myelosuppression potential with enhanced probability of undesired adverse effects in vivo, while a higher IC50 value indicates reduced bone marrow toxicity. The CD34^+ inhibition data for representative compounds of this invention are illustrated in the Table 2 below.

Row | MIC [1] [µg/mL] | Compound | also measured
1 | 4 (≈ 11.7 µM) | O=C1C=CN(c2c(F)cc(N3C[C@H](CO)OC3=O)c(F)c2F)CC1 [Example 1] | –
2 | 2 (≈ 5.22 µM) | CC(=O)NC[C@H]1CN(c2cc(F)c(N3C=CC(=O)CC3)c(F)c2F)C(=O)O1 [Example 2] | IC50 [2]: 148 µM; IC50 [3]: 13.2 µg/mL (≈ 34.4 µM)
3 | 1 (≈ 2.54 µM) | O=C1C=CN(c2c(F)cc(N3C[C@H](Cn4ccnn4)OC3=O)c(F)c2F)CC1 [Example 3] | –
4 | 2 (≈ 5.01 µM) | COC(=O)NC[C@H]1CN(c2cc(F)c(N3C=CC(=O)CC3)c(F)c2F)C(=O)O1 [Example 4] | IC50 [2]: 54.3 µM; IC50 [3]: 17.7 µg/mL (≈ 44.3 µM)
5 | 1 (≈ 2.45 µM) | O=C1C=CN(c2c(F)cc(N3C[C@H](CNc4ccon4)OC3=O)c(F)c2F)CC1 [Example 5] | IC50 [2]: 30.1 µM; IC50 [3]: 15.7 µg/mL (≈ 38.4 µM)
6 | 4 (≈ 9.47 µM) | Cc1cc(NC[C@H]2CN(c3cc(F)c(N4C=CC(=O)CC4)c(F)c3F)C(=O)O2)no1 [Example 6] | –
7 | 2 (≈ 5.03 µM) | CCC(=O)NC[C@H]1CN(c2cc(F)c(N3C=CC(=O)CC3)c(F)c2F)C(=O)O1 [Example 7] | –
8 | 4 (≈ 9.82 µM) | Cc1cn(C[C@H]2CN(c3cc(F)c(N4C=CC(=O)CC4)c(F)c3F)C(=O)O2)nn1 [Example 8] | –
9 | 1 (≈ 2.74 µM) | CC(=O)NC[C@H]1CN(c2ccc(N3C=CC(=O)CC3)c(F)c2F)C(=O)O1 [Example 9] | –
10 | 2 (≈ 6.17 µM) | O=C1C=CN(c2ccc(N3C[C@H](CO)OC3=O)c(F)c2F)CC1 [Example 10] | –
11 | 1 (≈ 2.66 µM) | O=C1C=CN(c2ccc(N3C[C@H](Cn4ccnn4)OC3=O)c(F)c2F)CC1 [Example 11] | –
12 | 4 (≈ 10.3 µM) | Cc1cn(C[C@H]2CN(c3ccc(N4C=CC(=O)CC4)c(F)c3F)C(=O)O2)nn1 [Example 12] | –
13 | 1 (≈ 2.62 µM) | COC(=O)NC[C@H]1CN(c2ccc(N3C=CC(=O)CC3)c(F)c2F)C(=O)O1 [Example 13] | IC50 [2]: 44.8 µM; IC50 [3]: 6.3 µg/mL (≈ 16.5 µM)
14 | 0.25 (≈ 0.64 µM) | O=C1C=CN(c2ccc(N3C[C@H](CNc4ccon4)OC3=O)c(F)c2F)CC1 [Example 14] | –
15 | 2 (≈ 5.27 µM) | CCC(=O)NC[C@H]1CN(c2ccc(N3C=CC(=O)CC3)c(F)c2F)C(=O)O1 [Example 15] | –
16 | 4 (≈ 10.2 µM) | O=C1C=CN(c2ccc(N3C[C@H](COc4ccon4)OC3=O)c(F)c2F)CC1 [Example 16] | –
17 | 4 (≈ 10.9 µM) | CC(=O)NC[C@H]1CN(c2cc(F)c(N3C=CC(=O)CC3)cc2F)C(=O)O1 [Example 17] | –
18 | 4 (≈ 10.7 µM) | O=C1C=CN(c2cc(F)c(N3C[C@H](Cn4ccnn4)OC3=O)cc2F)CC1 [Example 18] | –
19 | 4 (≈ 9.56 µM) | N#Cc1cn(C[C@H]2CN(c3cc(F)c(N4C=CC(=O)CC4)c(F)c3F)C(=O)O2)nn1 [Example 19] | –
20 | 4 (≈ 9.72 µM) | O=C1C=CN(c2c(F)cc(N3C[C@H](Cn4cc(F)nn4)OC3=O)c(F)c2F)CC1 [Example 20] | –
21 | 2 (≈ 4.55 µM) | Cn1nnc(-c2ccc(-c3cc(F)c(N4C[C@H](Cn5ccnn5)OC4=O)cc3F)cn2)n1 [Example 21] | –
22 | 1 (≈ 2.58 µM) | Cn1nnnc1-c1ccc(-c2ccc(N3C[C@H](CO)OC3=O)c(F)c2F)cn1 [Example 22] | –
23 | 1 (≈ 2.25 µM) | COC(=O)NC[C@H]1CN(c2ccc(-c3ccc(-c4nnnn4C)nc3)c(F)c2F)C(=O)O1 [Example 23] | –
24 | – | O=C1C=CN(c2ccc(N3C[C@H](Cn4ccnn4)OC3=O)cc2F)CC1 [Example 25, reference compound] | IC50 [2]: 5.04 µM; IC50 [3]: 2.6 µg/mL (≈ 7.28 µM)
25 | 2 (≈ 5.36 µM) | CC(=O)NC[C@H]1CN(c2cc(F)c(N3CCOCC3)c(F)c2F)C(=O)O1 [Example 26, reference compound] | –
26 | 2 (≈ 5.93 µM) | CC(=O)NC[C@H]1CN(c2ccc(N3CCOCC3)c(F)c2)C(=O)O1 [Linezolid, linezolid, reference compound] | IC50 [2]: 11.3 µM; CD34 IC50 [3]: Range 7.9-14.0 μg/mL; CD34 IC50 ([3]; listed as Lin.): 14.0 µg/mL and 8.1 µg/mL; IC50 [3]: 7.9 µg/mL (≈ 23.4 µM)

— US8178683B2, “Antimicrobial ortho-fluorophenyl oxazolidinones for treatment of bacterial infections” (Micurx Pharmaceuticals, Inc., priority 2007, dated 2012)
